The record followed here is ChEMBL document CHEMBL5236628 (J Med Chem, 2022).

The nature of one data set: physchem. Particulars: buffer, pH 7.4.
Data set [1] is described as follows: Cytotoxicity against CHO cells measured after 48 hrs by MTT assay. The following applies: Chinese hamster.
Data set [2] addresses Voltage-gated inwardly rectifying potassium channel KCNH2 (Homo sapiens, UniProt Q12809). The experiment in a line: Inhibition of human ERG expressed in CHO-K1 cells by Q-patch clamp assay. In general terms: In patch-clamp work, channel activity is measured electrically.
The test system of another data set is Hemozoin. The experiment in a line: Inhibition of Beta-hematin in Plasmodium falciparum NF54 assessed as hemozoin formation after 36 hrs by flow cytometry analysis. Background: A flow cytometer gives signals particle by particle.
Data set [3] relates to Plasmodium falciparum. The experiment in a line: microbe, parasite or virus in culture. The following applies: NF54, 72 h.
Data set [4] has as its system Plasmodium falciparum. The experiment in a line: Antiplasmodial activity against multidrug resistant Plasmodium falciparum K1 incubated for 72 hrs by microplate reader assay. It is filed as functional, organism-based. Particulars: K1, 72 h.
A short description of data set [5]: Selectivity index, ratio of IC50 for Plasmodium falciparum NF54 to IC50 for CHO cells. The following applies: hamster.
Data set [6] has as its system Plasmodium falciparum. The experiment in a line: Antiplasmodial activity against early stage (I to III) Plasmodium falciparum incubated for 48 hrs by bioluminescence assay. It counts as functional, organism-based.
Another data set deals with HepG2. The experiment in a line: Cytotoxicity against human HepG2 cells after 48 hrs by CellTiter Glo assay. It is filed as toxicity, cell-based. The following applies: hepg2, 48 h.
The test system of data set [7] is Plasmodium falciparum. The experiment in a line: Antiplasmodial activity against multidrug resistant Plasmodium falciparum K1 infected in human erythrocytes incubated for 48 hrs followed by addition of [3H]-hypoxanthine and measured after 24 hrs by beta-plate liquid scintillation counting method. It is filed as functional, organism-based.
Data set [8] relates to Plasmodium falciparum. The experiment in a line: Antiplasmodial activity against chloroquine sensitive Plasmodium falciparum NF54 infected in human erythrocytes incubated for 48 hrs followed by addition of [3H]-hypoxanthine and measured after 24 hrs by beta-plate liquid scintillation counting method. It counts as functional, organism-based.

Molecules are shown by their SMILES. pIC50: −log10 of the molar value. Converted amounts (≈) assume the structure as drawn. The source made the active and inactive calls. The rule behind the calls is not given here.

Chain of Voltage-gated inwardly rectifying potassium channel KCNH2 (Q12809 whole entry): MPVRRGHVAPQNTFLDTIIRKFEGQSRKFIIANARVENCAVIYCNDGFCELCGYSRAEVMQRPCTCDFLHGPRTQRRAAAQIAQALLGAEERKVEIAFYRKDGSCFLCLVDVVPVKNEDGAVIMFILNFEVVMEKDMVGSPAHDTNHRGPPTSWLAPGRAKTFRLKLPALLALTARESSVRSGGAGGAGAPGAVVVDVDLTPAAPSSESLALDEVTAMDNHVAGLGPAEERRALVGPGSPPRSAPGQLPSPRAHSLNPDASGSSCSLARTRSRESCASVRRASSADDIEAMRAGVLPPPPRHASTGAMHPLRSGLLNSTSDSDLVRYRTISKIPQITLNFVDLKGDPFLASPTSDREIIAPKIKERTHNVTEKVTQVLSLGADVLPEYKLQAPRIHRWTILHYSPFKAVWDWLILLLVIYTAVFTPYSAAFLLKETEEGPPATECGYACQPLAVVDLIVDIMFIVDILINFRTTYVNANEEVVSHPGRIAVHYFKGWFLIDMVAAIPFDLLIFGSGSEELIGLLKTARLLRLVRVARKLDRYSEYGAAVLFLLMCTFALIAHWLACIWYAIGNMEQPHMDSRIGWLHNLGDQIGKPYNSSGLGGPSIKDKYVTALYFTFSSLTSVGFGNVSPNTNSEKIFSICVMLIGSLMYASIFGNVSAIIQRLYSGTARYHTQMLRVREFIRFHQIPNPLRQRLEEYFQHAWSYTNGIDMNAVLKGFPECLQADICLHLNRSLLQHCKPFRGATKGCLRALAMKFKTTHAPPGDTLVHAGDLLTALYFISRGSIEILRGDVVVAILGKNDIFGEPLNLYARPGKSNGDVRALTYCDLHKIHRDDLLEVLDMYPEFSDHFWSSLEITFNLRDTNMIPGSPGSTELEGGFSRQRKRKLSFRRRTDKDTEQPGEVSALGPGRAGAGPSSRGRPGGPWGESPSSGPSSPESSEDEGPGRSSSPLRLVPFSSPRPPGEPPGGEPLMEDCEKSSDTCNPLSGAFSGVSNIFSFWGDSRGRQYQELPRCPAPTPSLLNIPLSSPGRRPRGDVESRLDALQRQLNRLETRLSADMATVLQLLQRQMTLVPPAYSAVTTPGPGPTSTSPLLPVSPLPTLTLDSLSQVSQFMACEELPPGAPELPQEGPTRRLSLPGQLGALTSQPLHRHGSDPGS

In the case of `Cc1noc(-c2ccc(CCN3CCC(Nc4nc5ccccc5n4Cc4ccc(C(F)(F)F)nc4)CC3)cc2)n1`, in “physchem”, the solubility (kinetic) (as a rule, solubility judged after dilution from a stock solution rather than from solid) at 2 h amounted to 40 µM (≈ 22.5 µg/mL). Besides, half-maximal inhibition in data set [1] (CHO cells) (IC50 at 48 h) was put at 5630 nM. The pIC50 (in general, −log10 of the IC50, conventionally taken in molar units) in [2] was 6.60; in the data set on Plasmodium falciparum [3], 7.36; in the data set on Plasmodium falciparum [4], 6.76. In the data set with Hemozoin, the inhibition entry was “Active”. In addition, the selectivity ratio in data set [5] came out at 128.

Consider `CCN(CC)Cc1cc(Nc2ccnc3cc(Cl)ccc23)ccc1O` [AMODIAQUINE], for which, in the data set with Hemozoin, the pIC50 was 5.00.

`CN(C)c1ccc2nc3ccc(N(C)C)cc3[s+]c2c1` [METHYLENE BLUE ANHYDROUS] had a pIC50 in the data set with Plasmodium falciparum [6] of 6.70.

On to `N#Cc1ccc(Cn2c(NC3CCN(CCc4ccc(-c5noc(C(F)(F)F)n5)cc4)CC3)nc3ccccc32)cc1`, for which, in the data set “physchem”, the solubility (kinetic) at 2 h was determined as 20 µM (≈ 11.4 µg/mL). In data set [1] (CHO cells), the midpoint of inhibition, the IC50 at 48 h, lay at 3850 nM. For the same compound, the inhibition entry with Hemozoin was “Active”. Besides, the pIC50 with Plasmodium falciparum [3] was 7.68; in the data set on Plasmodium falciparum [4] it was 7.31. Also, the selectivity ratio in data set [5] turned out to be 175.

`Cc1noc(-c2ccc(CCN3CCC(Nc4nc5ccccc5n4C)CC3)cc2)n1` gave a kinetic solubility at 2 h in the data set “physchem” of 160 µM (≈ 66.6 µg/mL). For the same compound, inhibition in [1] (CHO cells) was half-maximal at 9080 nM (IC50 at 48 h). The pIC50 was 6.46 in [2], 7.48 with Plasmodium falciparum [3] and 7.09 in the data set with Plasmodium falciparum [4]. The selectivity ratio in [5] was 275.

In the case of `Cc1noc(-c2ccc(CCN3CCC(Nc4nc5ccccc5n4CC4CCCCC4)CC3)cc2)n1`, the solubility (kinetic) at 2 h in the data set “physchem” was found to be 80 µM (≈ 39.9 µg/mL). Also, the IC50 (usually the midpoint of a concentration-inhibition curve) at 48 h in data set [1] (CHO cells) stood at 44400 nM. For the same compound, the figures for the pIC50 (in data set [2]; with Plasmodium falciparum [3]; in the data set with Plasmodium falciparum [4]) were 6.05, 7.03 and 6.81, respectively. Besides, the selectivity ratio in [5] worked out at 477.

For the compound `CCN(CC)CCCC(C)Nc1ccnc2cc(Cl)ccc12` (stereo not drawn) [CHLOROQUINE], in the data set on Hemozoin, the pIC50 is 4.66.

In turn, `N#Cc1ccc(Cn2c(NC3CCN(CCc4ccc(-c5nc(C(F)(F)F)no5)cc4)CC3)nc3ccccc32)cc1` came in with a kinetic solubility at 2 h in “physchem” of 10 µM (≈ 5.72 µg/mL). Inhibition in data set [1] (CHO cells) was half-maximal at 750 nM (IC50 at 48 h). Moreover, the pIC50 was 6.33 in [2], 7.66 with Plasmodium falciparum [3] and 7.57 in the data set on Plasmodium falciparum [4]. In the data set with Hemozoin, the inhibition entry was “Active”. Further, the selectivity ratio in data set [5] is 34.

With `COc1ccc(CCN2CCC(Nc3nc4ccccc4n3Cc3ccc(F)cc3)CC2)cc1` [ASTEMIZOLE], in the data set on HepG2, the Activity entry was “Non-Toxic”. The same compound yielded a solubility (kinetic) at 2 h in “physchem” of 40 µM (≈ 18.3 µg/mL).

In the data set “physchem”, `Cn1c(NC2CCN(CCc3ccc(C(=O)N4CCNCC4)cc3)CC2)nc2ccccc21` displayed a kinetic solubility at 2 h of 120 µM (≈ 53.6 µg/mL). Also, the values for the pIC50 (in data set [2]; in the data set on Plasmodium falciparum [3]) were under 4.52 and 5.47, respectively.

In the case of `Cn1c(NC2CCN(CCc3ccc(-c4nc(C(C)(C)C)no4)cc3)CC2)nc2ccccc21`, the Activity result in the data set on HepG2 was “Non-Toxic”. Besides, the pIC50 in the data set with Plasmodium falciparum [6] was 5.93; in the data set on Plasmodium falciparum [3], 7.19; with Plasmodium falciparum [4] it was 6.52. Besides, inhibition in data set [1] (cho) was half-maximal at 4690 nM (IC50 at 48 h).

In turn, `NCCn1c(NC2CCN(CCc3ccc(-c4nc(C(F)(F)F)no4)cc3)CC2)nc2ccccc21` gave a solubility (kinetic) at 2 h in “physchem” of over 200 µM. The pIC50 in the data set on Plasmodium falciparum [7] was 7.44; with Plasmodium falciparum [8], 7.05.
